Assays:
[1] = target: T1, ATP-dependent translocase ABCB1 (Homo sapiens, UniProt P08183); experiment: TP_TRANSPORTER: cell accumulation in MDR1-expressing MDCK cells; format: functional, cell-based; details: dog
[2] = target: T1, ATP-dependent translocase ABCB1; experiment: TP_TRANSPORTER: cell accumulation of colchicine in the presence of Naringenin at a concentration of 100uM in MDR1-expressing MDCK cells; format: functional, cell-based; details: dog

T1 sequence (P08183 whole entry): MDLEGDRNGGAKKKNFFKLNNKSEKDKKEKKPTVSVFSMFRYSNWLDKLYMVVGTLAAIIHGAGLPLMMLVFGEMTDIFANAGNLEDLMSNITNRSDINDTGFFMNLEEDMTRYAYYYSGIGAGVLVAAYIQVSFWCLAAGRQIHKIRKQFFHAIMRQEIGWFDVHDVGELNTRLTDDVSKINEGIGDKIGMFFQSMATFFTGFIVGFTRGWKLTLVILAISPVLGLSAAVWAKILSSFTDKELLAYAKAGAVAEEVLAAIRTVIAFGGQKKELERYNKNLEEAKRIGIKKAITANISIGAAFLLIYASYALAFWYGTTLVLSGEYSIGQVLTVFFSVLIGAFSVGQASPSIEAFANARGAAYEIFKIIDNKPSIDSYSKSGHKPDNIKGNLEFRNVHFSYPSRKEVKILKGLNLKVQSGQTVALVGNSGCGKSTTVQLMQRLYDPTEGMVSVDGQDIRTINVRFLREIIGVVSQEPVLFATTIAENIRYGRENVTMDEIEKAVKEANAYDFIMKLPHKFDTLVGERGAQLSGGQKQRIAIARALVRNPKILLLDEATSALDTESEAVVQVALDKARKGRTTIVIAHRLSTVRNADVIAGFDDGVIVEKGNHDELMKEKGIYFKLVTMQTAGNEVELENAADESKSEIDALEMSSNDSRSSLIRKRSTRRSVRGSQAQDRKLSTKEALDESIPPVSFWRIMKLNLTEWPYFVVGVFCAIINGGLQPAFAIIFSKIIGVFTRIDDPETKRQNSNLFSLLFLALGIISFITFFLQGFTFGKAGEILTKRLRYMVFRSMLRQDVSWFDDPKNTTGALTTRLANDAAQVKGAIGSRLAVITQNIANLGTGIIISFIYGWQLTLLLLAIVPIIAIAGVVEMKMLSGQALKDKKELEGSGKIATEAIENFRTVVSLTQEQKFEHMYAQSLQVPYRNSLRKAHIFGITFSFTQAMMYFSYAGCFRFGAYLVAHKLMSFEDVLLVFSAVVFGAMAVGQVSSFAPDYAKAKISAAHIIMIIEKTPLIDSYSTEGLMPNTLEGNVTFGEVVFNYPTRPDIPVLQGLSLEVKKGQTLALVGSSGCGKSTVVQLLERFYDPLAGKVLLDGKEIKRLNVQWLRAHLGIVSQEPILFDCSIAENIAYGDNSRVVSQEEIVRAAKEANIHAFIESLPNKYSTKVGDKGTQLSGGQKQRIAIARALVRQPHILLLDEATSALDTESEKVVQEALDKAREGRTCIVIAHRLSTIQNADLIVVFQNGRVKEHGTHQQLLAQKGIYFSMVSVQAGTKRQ

O=C1C[C@@H](c2ccc(O)cc2)Oc2cc(O)cc(O)c21 [NARINGENIN]
Activity [1]: substrate [+] | Activity [2]: inhibitor [+]
